The results in this text go back to ChEMBL document CHEMBL1955750, “Benzodiazepines and benzotriazepines as protein interaction inhibitors targeting bromodomains of the BET family” (Bioorg Med Chem, 2012).

The target in assay [1] is Protein polybromo-1 (Homo sapiens) (UniProt Q86U86). The assay is described as follows: Binding affinity to PB1 assessed as change in melting temperature at 100 uM by protein stability shift assay.
The target in assay [2] is Bromodomain-containing protein 2 (Homo sapiens) (UniProt P25440). Description: Binding affinity to BRD2-BD2 assessed as change in melting temperature at 100 uM by protein stability shift assay.
Assay [3] deals with T1, Bromodomain-containing protein 4 (Homo sapiens, UniProt O60885). The assay is described as follows: Binding affinity to BRD4-BD2 assessed as change in melting temperature at 100 uM by protein stability shift assay.
For assay [4], the target named is Histone acetyltransferase KAT2B (Homo sapiens) (UniProt Q92831). The assay is described as follows: Binding affinity to PCAF assessed as change in melting temperature at 100 uM by protein stability shift assay.
The target of assay [5] is Bromodomain-containing protein 3 (Homo sapiens) (UniProt Q15059). The assay is described as follows: Binding affinity to BRD3-BD2 assessed as change in melting temperature at 100 uM by protein stability shift assay.
The target of assay [6] is Bromodomain adjacent to zinc finger domain protein 2B (Homo sapiens) (UniProt Q9UIF8). Description: Binding affinity to BAZ2B assessed as change in melting temperature at 100 uM by protein stability shift assay.
The target in assay [7] is Bromodomain-containing protein 2 (Homo sapiens) (UniProt P25440). The assay is described as follows: Binding affinity to BRD2-BD1 assessed as change in melting temperature at 100 uM by protein stability shift assay.
In assay [8] the target is Bromodomain testis-specific protein (Homo sapiens) (UniProt Q58F21). The assay is described as follows: Binding affinity to BRDT-BD1 assessed as change in melting temperature at 100 uM by protein stability shift assay.
The target of assay [9] is CREB-binding protein (Homo sapiens) (UniProt Q92793). Description: Binding affinity to CREBBP assessed as change in melting temperature at 100 uM by protein stability shift assay.
In assay [10] the target is Bromodomain-containing protein 3 (Homo sapiens) (UniProt Q15059). The assay is described as follows: Binding affinity to BRD3-BD1 assessed as change in melting temperature at 100 uM by protein stability shift assay.
A short description of assay [11]: Binding affinity to LOC93349 assessed as change in melting temperature at 100 uM by protein stability shift assay.
For assay [12], the target named is T1, Bromodomain-containing protein 4. Description: Binding affinity to BRD4-BD1 assessed as change in melting temperature at 100 uM by protein stability shift assay.
For assay [13], the target named is Bromodomain-containing protein 2 (Homo sapiens) (UniProt P25440). The assay is described as follows: Binding affinity to BRD2-BD1 assessed as change in melting temperature at 10 uM by protein stability shift assay.
Assay [14] has as its target Histone acetyltransferase KAT2B (Homo sapiens) (UniProt Q92831). The assay is described as follows: Binding affinity to PCAF assessed as change in melting temperature at 10 uM by protein stability shift assay.
Assay [15] addresses Bromodomain-containing protein 3 (Homo sapiens) (UniProt Q15059). The assay is described as follows: Binding affinity to BRD3-BD1 assessed as change in melting temperature at 10 uM by protein stability shift assay.
For assay [16], the target named is Bromodomain adjacent to zinc finger domain protein 2B (Homo sapiens) (UniProt Q9UIF8). Description: Binding affinity to BAZ2B assessed as change in melting temperature at 10 uM by protein stability shift assay.
Assay [17] deals with T1, Bromodomain-containing protein 4. Description: Binding affinity to BRD4-BD2 assessed as change in melting temperature at 10 uM by protein stability shift assay.
The target in assay [18] is Protein polybromo-1 (Homo sapiens) (UniProt Q86U86). Description: Binding affinity to PB1 assessed as change in melting temperature at 10 uM by protein stability shift assay.
For assay [19], the target named is T1, Bromodomain-containing protein 4. The assay is described as follows: Binding affinity to BRD4-BD1 assessed as change in melting temperature at 10 uM by protein stability shift assay.
A short description of assay [20]: Binding affinity to LOC93349 assessed as change in melting temperature at 10 uM by protein stability shift assay.
For assay [21], the target named is Bromodomain-containing protein 3 (Homo sapiens) (UniProt Q15059). The assay is described as follows: Binding affinity to BRD3-BD2 assessed as change in melting temperature at 10 uM by protein stability shift assay.
Assay [22] deals with Bromodomain-containing protein 2 (Homo sapiens) (UniProt P25440). The assay is described as follows: Binding affinity to BRD2-BD2 assessed as change in melting temperature at 10 uM by protein stability shift assay.
The target of assay [23] is CREB-binding protein (Homo sapiens) (UniProt Q92793). The assay is described as follows: Binding affinity to CREBBP assessed as change in melting temperature at 10 uM by protein stability shift assay.
In assay [24] the target is Bromodomain testis-specific protein (Homo sapiens) (UniProt Q58F21). Description: Binding affinity to BRDT-BD1 assessed as change in melting temperature at 10 uM by protein stability shift assay.
Assay [25] deals with T1, Bromodomain-containing protein 4.
Description: Binding affinity to BRD4-BD1 assessed as change in melting temperature by isothermal titration calorimetry

Molecules are shown by their SMILES. Activity calls are given as the source filed them. The calls are words filed in the database; no cut-off is given here.

Protein polybromo-1 (Homo sapiens), sequence (Q86U86 whole entry): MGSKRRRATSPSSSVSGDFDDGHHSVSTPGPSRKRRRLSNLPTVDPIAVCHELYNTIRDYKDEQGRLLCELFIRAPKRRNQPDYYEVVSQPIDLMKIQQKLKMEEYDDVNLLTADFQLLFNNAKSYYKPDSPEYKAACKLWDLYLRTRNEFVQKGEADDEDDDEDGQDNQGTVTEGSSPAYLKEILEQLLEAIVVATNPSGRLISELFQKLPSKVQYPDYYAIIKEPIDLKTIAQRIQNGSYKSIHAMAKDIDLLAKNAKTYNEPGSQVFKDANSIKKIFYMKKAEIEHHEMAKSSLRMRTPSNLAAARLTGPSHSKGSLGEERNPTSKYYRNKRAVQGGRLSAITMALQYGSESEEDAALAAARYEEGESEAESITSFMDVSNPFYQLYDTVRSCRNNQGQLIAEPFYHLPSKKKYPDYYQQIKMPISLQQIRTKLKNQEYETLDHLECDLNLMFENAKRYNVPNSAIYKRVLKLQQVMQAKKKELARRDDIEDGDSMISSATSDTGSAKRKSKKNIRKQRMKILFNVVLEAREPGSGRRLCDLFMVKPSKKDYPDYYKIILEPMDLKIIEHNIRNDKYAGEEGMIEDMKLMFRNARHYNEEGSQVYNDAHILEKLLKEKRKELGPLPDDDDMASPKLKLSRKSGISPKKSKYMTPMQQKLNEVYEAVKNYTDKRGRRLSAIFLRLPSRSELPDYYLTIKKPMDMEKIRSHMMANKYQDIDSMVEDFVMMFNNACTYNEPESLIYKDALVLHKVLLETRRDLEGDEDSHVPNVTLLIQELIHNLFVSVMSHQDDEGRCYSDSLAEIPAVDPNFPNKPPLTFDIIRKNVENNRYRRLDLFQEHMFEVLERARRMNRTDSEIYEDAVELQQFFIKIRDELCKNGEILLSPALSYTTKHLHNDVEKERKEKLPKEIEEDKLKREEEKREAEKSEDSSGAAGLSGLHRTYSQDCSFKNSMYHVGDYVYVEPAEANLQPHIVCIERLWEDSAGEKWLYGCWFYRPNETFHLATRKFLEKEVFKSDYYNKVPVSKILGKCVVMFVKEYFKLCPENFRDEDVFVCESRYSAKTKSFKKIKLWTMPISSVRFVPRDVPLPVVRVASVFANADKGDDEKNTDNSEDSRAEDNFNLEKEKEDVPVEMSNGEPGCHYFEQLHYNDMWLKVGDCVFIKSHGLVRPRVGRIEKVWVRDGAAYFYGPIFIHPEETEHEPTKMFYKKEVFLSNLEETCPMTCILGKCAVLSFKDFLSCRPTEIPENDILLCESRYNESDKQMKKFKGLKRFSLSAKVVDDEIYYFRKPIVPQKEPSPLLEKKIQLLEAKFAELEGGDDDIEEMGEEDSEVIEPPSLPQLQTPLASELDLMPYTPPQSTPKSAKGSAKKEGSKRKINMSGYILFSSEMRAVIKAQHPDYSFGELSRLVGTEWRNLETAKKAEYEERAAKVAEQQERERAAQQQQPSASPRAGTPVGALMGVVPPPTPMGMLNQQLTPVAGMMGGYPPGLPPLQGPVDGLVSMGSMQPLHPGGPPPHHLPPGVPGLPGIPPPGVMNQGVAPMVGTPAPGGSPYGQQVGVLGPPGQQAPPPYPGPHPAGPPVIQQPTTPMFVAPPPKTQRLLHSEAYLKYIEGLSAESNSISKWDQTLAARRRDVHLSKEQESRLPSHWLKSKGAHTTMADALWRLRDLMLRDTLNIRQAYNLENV
CREB-binding protein (Homo sapiens), sequence (Q92793 2-2442 limits assumed): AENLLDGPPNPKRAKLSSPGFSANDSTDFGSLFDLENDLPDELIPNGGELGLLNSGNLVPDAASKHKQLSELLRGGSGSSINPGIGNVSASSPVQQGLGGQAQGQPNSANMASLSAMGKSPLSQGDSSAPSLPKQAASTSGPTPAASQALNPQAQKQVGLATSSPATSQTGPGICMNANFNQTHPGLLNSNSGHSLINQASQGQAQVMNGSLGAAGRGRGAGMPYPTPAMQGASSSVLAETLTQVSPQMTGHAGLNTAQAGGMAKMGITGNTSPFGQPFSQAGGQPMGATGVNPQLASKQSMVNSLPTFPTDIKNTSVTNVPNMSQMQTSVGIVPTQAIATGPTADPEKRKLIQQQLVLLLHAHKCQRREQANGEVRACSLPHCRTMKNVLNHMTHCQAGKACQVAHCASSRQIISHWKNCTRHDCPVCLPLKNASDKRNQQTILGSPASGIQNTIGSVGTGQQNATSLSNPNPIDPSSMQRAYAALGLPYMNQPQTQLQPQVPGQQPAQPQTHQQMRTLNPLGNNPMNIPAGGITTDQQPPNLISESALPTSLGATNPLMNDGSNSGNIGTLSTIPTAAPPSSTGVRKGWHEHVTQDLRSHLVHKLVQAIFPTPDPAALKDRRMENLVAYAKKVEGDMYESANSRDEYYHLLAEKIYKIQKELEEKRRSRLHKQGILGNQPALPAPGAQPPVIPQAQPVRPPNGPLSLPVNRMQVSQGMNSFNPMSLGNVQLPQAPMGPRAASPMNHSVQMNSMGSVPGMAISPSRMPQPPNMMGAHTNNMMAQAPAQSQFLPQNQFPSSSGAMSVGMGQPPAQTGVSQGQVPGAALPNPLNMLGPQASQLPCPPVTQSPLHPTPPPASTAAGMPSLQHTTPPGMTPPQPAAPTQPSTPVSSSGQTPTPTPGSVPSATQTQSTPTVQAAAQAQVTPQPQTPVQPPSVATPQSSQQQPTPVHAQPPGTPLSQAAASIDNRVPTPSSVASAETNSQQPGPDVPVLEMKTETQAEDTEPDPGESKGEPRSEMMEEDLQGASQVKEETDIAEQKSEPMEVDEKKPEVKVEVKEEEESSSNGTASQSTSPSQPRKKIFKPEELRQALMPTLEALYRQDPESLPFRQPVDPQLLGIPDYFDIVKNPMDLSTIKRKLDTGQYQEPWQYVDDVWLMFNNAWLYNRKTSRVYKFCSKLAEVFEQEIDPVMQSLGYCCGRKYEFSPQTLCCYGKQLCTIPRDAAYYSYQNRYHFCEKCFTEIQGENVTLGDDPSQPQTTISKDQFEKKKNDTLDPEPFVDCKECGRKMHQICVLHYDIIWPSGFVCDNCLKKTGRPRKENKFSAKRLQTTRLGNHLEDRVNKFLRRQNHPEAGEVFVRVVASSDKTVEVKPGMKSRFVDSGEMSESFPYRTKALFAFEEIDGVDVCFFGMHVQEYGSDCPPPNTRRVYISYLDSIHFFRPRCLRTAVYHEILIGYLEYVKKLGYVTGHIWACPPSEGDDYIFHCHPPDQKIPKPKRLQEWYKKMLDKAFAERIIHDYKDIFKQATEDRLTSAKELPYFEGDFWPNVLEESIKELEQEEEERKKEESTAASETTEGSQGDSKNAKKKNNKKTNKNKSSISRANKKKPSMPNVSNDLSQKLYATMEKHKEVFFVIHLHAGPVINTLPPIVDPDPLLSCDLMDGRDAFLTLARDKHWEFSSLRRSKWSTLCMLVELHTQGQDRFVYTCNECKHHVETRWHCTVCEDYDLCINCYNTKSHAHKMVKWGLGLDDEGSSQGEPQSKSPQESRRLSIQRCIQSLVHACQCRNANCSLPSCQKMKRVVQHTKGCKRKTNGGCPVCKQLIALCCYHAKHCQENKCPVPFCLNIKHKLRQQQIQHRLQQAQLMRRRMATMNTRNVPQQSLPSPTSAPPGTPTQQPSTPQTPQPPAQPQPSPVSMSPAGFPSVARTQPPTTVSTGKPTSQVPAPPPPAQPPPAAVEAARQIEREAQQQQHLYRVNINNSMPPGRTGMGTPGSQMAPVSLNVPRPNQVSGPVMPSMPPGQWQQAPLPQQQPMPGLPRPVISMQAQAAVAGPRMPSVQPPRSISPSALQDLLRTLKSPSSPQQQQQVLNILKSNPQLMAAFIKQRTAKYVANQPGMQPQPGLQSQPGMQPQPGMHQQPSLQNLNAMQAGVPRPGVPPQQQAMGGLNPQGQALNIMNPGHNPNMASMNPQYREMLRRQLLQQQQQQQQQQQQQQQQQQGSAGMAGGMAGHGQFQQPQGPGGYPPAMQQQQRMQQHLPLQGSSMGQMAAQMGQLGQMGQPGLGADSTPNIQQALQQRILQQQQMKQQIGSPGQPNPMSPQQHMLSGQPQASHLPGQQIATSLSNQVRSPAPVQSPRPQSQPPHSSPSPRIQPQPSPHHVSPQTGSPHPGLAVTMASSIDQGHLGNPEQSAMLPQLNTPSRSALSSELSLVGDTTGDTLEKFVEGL
Bromodomain-containing protein 3 (Homo sapiens), sequence (Q15059 2-726 limits assumed): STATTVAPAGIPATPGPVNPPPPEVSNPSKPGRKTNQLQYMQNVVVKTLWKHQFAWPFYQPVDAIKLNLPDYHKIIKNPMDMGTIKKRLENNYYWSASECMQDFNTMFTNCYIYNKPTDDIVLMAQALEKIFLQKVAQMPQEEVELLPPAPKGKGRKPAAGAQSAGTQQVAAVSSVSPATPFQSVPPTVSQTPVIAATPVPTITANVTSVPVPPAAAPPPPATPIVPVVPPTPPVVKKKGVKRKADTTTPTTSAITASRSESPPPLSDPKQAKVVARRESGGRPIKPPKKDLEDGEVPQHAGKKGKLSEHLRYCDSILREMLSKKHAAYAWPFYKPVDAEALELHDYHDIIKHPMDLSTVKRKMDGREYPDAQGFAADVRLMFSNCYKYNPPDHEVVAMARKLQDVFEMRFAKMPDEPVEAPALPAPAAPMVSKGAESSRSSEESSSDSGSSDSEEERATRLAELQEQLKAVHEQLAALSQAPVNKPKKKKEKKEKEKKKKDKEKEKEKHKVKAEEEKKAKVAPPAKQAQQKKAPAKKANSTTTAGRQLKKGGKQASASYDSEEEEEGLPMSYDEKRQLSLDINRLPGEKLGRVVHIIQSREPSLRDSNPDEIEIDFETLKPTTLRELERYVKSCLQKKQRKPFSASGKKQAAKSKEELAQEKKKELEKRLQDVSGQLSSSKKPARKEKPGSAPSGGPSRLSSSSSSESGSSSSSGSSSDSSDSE

Turning to `CCC1=NCc2nnc(C)n2-c2ccc(Cl)cc21`, the ΔTm in assay [1], in assay [2], in assay [3], in assay [4], in [5] and in assay [6] was less than 2 °C each time. In addition, the ΔTm in assay [7], in assay [8], in assay [9], in [10], in assay [11] and in assay [12] was less than 2 °C each time.

In the case of `CCC1=NCC(=S)Nc2ccc(Cl)cc21`, the ΔTm in [1], in assay [2], in assay [3], in assay [4], in assay [5] and in assay [6] was less than 2 °C each time. The ΔTm in assay [7], in [8], in assay [9], in [10], in [11] and in [12] was less than 2 °C in each case.

With `CCC1=NCC(=O)Nc2ccc(Cl)cc21`, the ΔTm in assay [1], in [2], in assay [3], in assay [4], in assay [5] and in assay [6] was less than 2 °C each time. Besides, the ΔTm in [7], in [8], in [9], in [10], in assay [11] and in [12] was less than 2 °C in each case.

On to `CCC1=NCc2nnc(-c3ccncc3)n2-c2ccc(Cl)cc21`, for which the ΔTm in [1], in assay [2], in assay [3], in assay [4], in assay [5] and in [6] was less than 2 °C each time. Besides, the ΔTm in assay [7], in assay [8], in [9], in assay [10], in assay [11] and in [12] was less than 2 °C throughout.

Consider `CN1N=C(c2ccccc2)c2cc(Cl)ccc2-n2c1n[nH]c2=O`, for which the ΔTm in assay [1], in assay [2], in [3], in assay [4], in assay [5] and in [6] was less than 2 °C in each case. In addition, the ΔTm in assay [7], in [8], in [9], in assay [10], in assay [11] and in assay [12] was less than 2 °C in each case.

Regarding `CC(=O)NNC1=Nc2ccc(Cl)cc2C(c2ccccc2)=NN1C`, the ΔTm in [1], in assay [2], in [3], in assay [4], in assay [5] and in assay [6] was less than 2 °C each time. The ΔTm in [7], in assay [8], in assay [9], in [10], in assay [11] and in [12] was less than 2 °C throughout.

Turning to `Cc1nnc2n1-c1ccc(Cl)cc1C(c1ccccc1)=NC2` [ALPRAZOLAM], the result in assay [13], in assay [15], in assay [17], in assay [18], in assay [19] and in assay [21] was Active. Further, the result in assay [22], in assay [23] and in assay [24] was Active. For the same molecule, the result in [14], in assay [16] and in [20] was inactive. In addition, in [25], the ΔTm was determined as 4.7 °C.

In the case of `CCC1=NCc2nnc(-c3cccc(OC)c3)n2-c2ccc(Cl)cc21`, the thermal shift (ΔTm) in [1], in assay [2], in assay [3], in assay [4], in assay [5] and in [6] was less than 2 °C in each case. In addition, the shift in melting temperature (ΔTm) in assay [7], in assay [8], in [9], in assay [10], in [11] and in [12] was less than 2 °C each time.

On to `Clc1ccc2c(c1)C(c1ccccc1)=NCc1nncn1-2`, for which the outcome in assay [13], in assay [14], in assay [16], in [18], in assay [20] and in [22] was inactive. Besides, in assay [24], the result was inactive. Further, the outcome in assay [15], in assay [17], in assay [19], in [21] and in assay [23] was Active.

With `CN1N=C(c2ccccc2)c2cc(Cl)ccc2-n2c(N)nnc21`, the shift in melting temperature (ΔTm) in [1], in assay [2], in assay [3], in assay [4], in assay [5] and in assay [6] was less than 2 °C throughout. For the same molecule, the ΔTm in assay [7], in assay [8], in assay [9], in [10], in assay [11] and in [12] was less than 2 °C in each case.

`CN1N=C(c2ccccc2)c2cc(Cl)ccc2NC1=S`: the ΔTm in [1], in assay [2], in assay [3], in assay [4], in assay [5] and in [6] was less than 2 °C in each case. The ΔTm in assay [7], in [8], in assay [9], in assay [10], in assay [11] and in [12] was less than 2 °C each time.

For `CCC1=NCc2nnc(-c3ccccc3)n2-c2ccc(Cl)cc21`, the ΔTm in assay [1], in assay [2], in [3], in assay [4], in assay [5] and in [6] was less than 2 °C throughout. The ΔTm in assay [7], in [8], in assay [9], in assay [10], in assay [11] and in assay [12] was less than 2 °C in each case.

With `Cc1ncc2n1-c1ccc(Cl)cc1C(c1ccccc1F)=NC2`, the result in [13], in [15], in assay [17], in assay [19], in assay [21] and in assay [22] was Active. Besides, the outcome in [23] and in assay [24] was Active. Also, the outcome in assay [14], in [16], in assay [18] and in assay [20] was inactive.

Turning to `CCC1=NCc2nnc(CC)n2-c2ccc(Cl)cc21`, the ΔTm in assay [1], in assay [2], in assay [3], in assay [4], in assay [5] and in assay [6] was less than 2 °C in each case. The ΔTm in assay [7], in [8], in assay [9], in assay [10], in [11] and in assay [12] was less than 2 °C throughout.

In the case of `CCOC(=O)c1ncn2c1[C@@H]1CCCN1C(=O)c1cc(OC)ccc1-2`, the result in assay [13], in assay [15], in [17] and in assay [19] was Active. Further, the outcome in assay [14], in assay [16], in assay [18], in [20], in [21] and in assay [22] was inactive. For the same molecule, the outcome in [23] and in assay [24] was inactive.

As a reminder, the ΔTm is the shift of the melting midpoint relative to a reference.
